ChEMBL document CHEMBL1201861, “Genomics of Drug Sensitity in Cancer screening data, Wellcome Trust Sanger Institute”

Tests used:
Test in all cases: cells
ES5 = assay type: functional, cell-based, Homo sapiens; conditions: Homo sapiens, ES5;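 further: growth inhibition of human ES5 cells, read out by a cell viability assay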
Description: SANGER: Inhibition of human ES5 cell growth in a cell viability assay.

NCI-H720 = assay type: functional, cell-based, Homo sapiens; conditions: Homo sapiens, NCI-H720;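 further: growth inhibition of human NCI-H720 cells determined by a cell viability assay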
Description: SANGER: Inhibition of human NCI-H720 cell growth in a cell viability assay.

NCI-H1299 = assay type: functional, cell-based; conditions: Homo sapiens;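 further: growth inhibition of human NCI-H1299 cells, read out by a cell viability assay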
Description: SANGER: Inhibition of human NCI-H1299 cell growth in a cell viability assay.

NCI-H226 = assay type: functional, cell-based, Homo sapiens; conditions: Homo sapiens, NCI-H226;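 further: cell viability read-out used to gauge growth inhibition of the cells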
Description: SANGER: Inhibition of human NCI-H226 cell growth in a cell viability assay.

L-428 = assay type: functional, cell-based, Homo sapiens; conditions: Homo sapiens, L-428
Description: SANGER: Inhibition of human L-428 cell growth in a cell viability assay.

SCC-15 = assay type: functional, cell-based, Homo sapiens; conditions: Homo sapiens, SCC-15;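 further: growth inhibition of SCC-15 cells, read out with a cell viability assay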
Description: SANGER: Inhibition of human SCC-15 cell growth in a cell viability assay.

BV-173 = assay type: functional, cell-based, Homo sapiens; conditions: Homo sapiens, BV-173
Description: SANGER: Inhibition of human BV-173 cell growth in a cell viability assay.

SW 962 = assay type: functional, cell-based, Homo sapiens; conditions: Homo sapiens, SW 962;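 further: growth inhibition of human SW962 cells, read out by a cell viability assay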
Description: SANGER: Inhibition of human SW962 cell growth in a cell viability assay.

TE-9 = assay type: functional, cell-based, Homo sapiens; conditions: Homo sapiens, TE-9;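 further: cell growth inhibition, measured with a cell viability readout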
Description: SANGER: Inhibition of human TE-9 cell growth in a cell viability assay.

SCH = assay type: functional, cell-based, Homo sapiens; conditions: Homo sapiens, SCH;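 further: growth inhibition of human SCH cells, read out in a cell viability assay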
Description: SANGER: Inhibition of human SCH cell growth in a cell viability assay.

TGBC1TKB = assay type: functional, cell-based, Homo sapiens; conditions: Homo sapiens, TGBC1TKB;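 further: growth inhibition of TGBC1TKB cells, read out by a cell viability assay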
Description: SANGER: Inhibition of human TGBC1TKB cell growth in a cell viability assay.

GI-1 = assay type: functional, cell-based, Homo sapiens; conditions: Homo sapiens, GI-1;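 further: growth inhibition of human GI-1 cells, measured with a cell viability readout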
Description: SANGER: Inhibition of human GI-1 cell growth in a cell viability assay.

NCI-H1092 = assay type: functional, cell-based, Homo sapiens; conditions: Homo sapiens, NCI-H1092;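 further: cell growth inhibition measured with a cell viability assay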
Description: SANGER: Inhibition of human NCI-H1092 cell growth in a cell viability assay.

GAK = assay type: functional, cell-based, Homo sapiens; conditions: Homo sapiens, GAK;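 further: cell growth inhibition read out by a cell viability assay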
Description: SANGER: Inhibition of human GAK cell growth in a cell viability assay.

LB771-HNC = assay type: functional, cell-based; conditions: Homo sapiens;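 further: growth inhibition of LB771-HNC human cells, read out with a cell viability assay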
Description: SANGER: Inhibition of human LB771-HNC cell growth in a cell viability assay.

NB5 = assay type: functional, cell-based, Homo sapiens; conditions: Homo sapiens, NB5;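 further: growth inhibition of NB5 cells, read out as cell viability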
Description: SANGER: Inhibition of human NB5 cell growth in a cell viability assay.

LXF-289 cell line = assay type: functional, cell-based; conditions: Homo sapiens
Description: SANGER: Inhibition of human LXF-289 cell growth in a cell viability assay.

OVCAR-4 = assay type: functional, cell-based, Homo sapiens; conditions: Homo sapiens, OVCAR-4;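 further: growth inhibition of human OVCAR-4 cells, measured with a cell viability assay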
Description: SANGER: Inhibition of human OVCAR-4 cell growth in a cell viability assay.

U-87 MG = assay type: functional, cell-based, Homo sapiens, U-87MG ATCC; conditions: Homo sapiens, U-87 MG;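 further: growth inhibition of the cells measured with a viability assay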
Description: SANGER: Inhibition of human U-87-MG cell growth in a cell viability assay.

CCRF-CEM = assay type: functional, cell-based, Homo sapiens; conditions: Homo sapiens, CCRF-CEM;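 further: inhibition of CCRF-CEM cell growth, measured by a cell viability assay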
Description: SANGER: Inhibition of human CCRF-CEM cell growth in a cell viability assay.

8-MG-BA = assay type: functional, cell-based, Homo sapiens; conditions: Homo sapiens, 8-MG-BA;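 further: growth inhibition of 8-MG-BA cells, read out with a cell viability assay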
Description: SANGER: Inhibition of human 8-MG-BA cell growth in a cell viability assay.

SJSA-1 = assay type: functional, cell-based, Homo sapiens; conditions: Homo sapiens, SJSA-1;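 further: growth inhibition of human SJSA-1 cells, read out through a cell viability measurement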
Description: SANGER: Inhibition of human SJSA-1 cell growth in a cell viability assay.

RH-1 = assay type: functional, cell-based, Homo sapiens; conditions: Homo sapiens, RH-1;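 further: growth inhibition of human RH-1 cells, read out with a cell viability assay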
Description: SANGER: Inhibition of human RH-1 cell growth in a cell viability assay.

GR-ST = assay type: functional, cell-based, Homo sapiens; conditions: Homo sapiens, GR-ST
Description: SANGER: Inhibition of human GR-ST cell growth in a cell viability assay.

NCI-H1355 = assay type: functional, cell-based, Homo sapiens; conditions: Homo sapiens, NCI-H1355;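 further: growth inhibition of human NCI-H1355 cells, read out by a cell viability assay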
Description: SANGER: Inhibition of human NCI-H1355 cell growth in a cell viability assay.

HCC1187 = assay type: functional, cell-based, Homo sapiens; conditions: Homo sapiens, HCC1187;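 further: growth inhibition of HCC1187 cells, read out with a cell viability assay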
Description: SANGER: Inhibition of human HCC1187 cell growth in a cell viability assay.

KP-N-YS = assay type: functional, cell-based, Homo sapiens; conditions: Homo sapiens, KP-N-YS;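 further: cell viability assay measuring inhibition of cell line growth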
Description: SANGER: Inhibition of human KP-N-YS cell growth in a cell viability assay.

NEC8 = assay type: functional, cell-based, Homo sapiens; conditions: Homo sapiens, NEC8;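 further: growth inhibition of human NEC8 cells, read out by a cell viability assay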
Description: SANGER: Inhibition of human NEC8 cell growth in a cell viability assay.

NCI-N87 = assay type: functional, cell-based; conditions: Homo sapiens;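 further: growth inhibition of human NCI-N87 cells, read out with a cell viability assay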
Description: SANGER: Inhibition of human NCI-N87 cell growth in a cell viability assay.

NCI-H526 = assay type: functional, cell-based, Homo sapiens; conditions: Homo sapiens, NCI-H526;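 further: growth inhibition of the human NCI-H526 cell line, measured by a cell viability assay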
Description: SANGER: Inhibition of human NCI-H526 cell growth in a cell viability assay.

SNB-75 = assay type: functional, cell-based, Homo sapiens; conditions: Homo sapiens, SNB-75;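 further: cell viability assay measuring growth inhibition of human SNB-75 cells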
Description: SANGER: Inhibition of human SNB75 cell growth in a cell viability assay.

no-10 = assay type: functional, cell-based, Homo sapiens; conditions: Homo sapiens;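 further: growth inhibition of no-10 cells, read out with a cell viability assay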
Description: SANGER: Inhibition of human no-10 cell growth in a cell viability assay.

D-247MG = assay type: functional, cell-based; conditions: Homo sapiens
Description: SANGER: Inhibition of human D-247MG cell growth in a cell viability assay.

MOLT-16 = assay type: functional, cell-based, Homo sapiens; conditions: Homo sapiens, MOLT-16;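 further: growth inhibition of human MOLT-16 cells, read out with a cell viability assay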
Description: SANGER: Inhibition of human MOLT-16 cell growth in a cell viability assay.

TE-5 = assay type: functional, cell-based, Homo sapiens; conditions: Homo sapiens, TE-5;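 further: inhibition of cell growth, read out by a cell viability assay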
Description: SANGER: Inhibition of human TE-5 cell growth in a cell viability assay.

LB1047-RCC = assay type: functional, cell-based, Homo sapiens; conditions: Homo sapiens, LB1047-RCC;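 further: inhibition of cell growth, determined with a cell viability assay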
Description: SANGER: Inhibition of human LB1047-RCC cell growth in a cell viability assay.

PSN1 = assay type: functional, cell-based, Homo sapiens; conditions: Homo sapiens, PSN1;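 further: suppression of growth of human PSN1 cells, read out by a cell viability assay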
Description: SANGER: Inhibition of human PSN1 cell growth in a cell viability assay.

QIMR-WIL = assay type: functional, cell-based, Homo sapiens; conditions: Homo sapiens, QIMR-WIL;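 further: growth inhibition of QIMR-WIL cells, read out with a cell viability assay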
Description: SANGER: Inhibition of human QIMR-WIL cell growth in a cell viability assay.

L-363 = assay type: functional, cell-based, Homo sapiens; conditions: Homo sapiens, L-363
Description: SANGER: Inhibition of human L-363 cell growth in a cell viability assay.

SK-NEP-1 = assay type: functional, cell-based, Homo sapiens; conditions: Homo sapiens, SK-NEP-1;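 further: growth inhibition of human SK-NEP-1 cells, read out by a cell viability assay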
Description: SANGER: Inhibition of human SK-NEP-1 cell growth in a cell viability assay.

MV4-11 = assay type: functional, cell-based, Homo sapiens, MV-4-11; conditions: Homo sapiens, MV4-11;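 further: cell viability readout measuring growth inhibition of human MV-4-11 cells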
Description: SANGER: Inhibition of human MV-4-11 cell growth in a cell viability assay.

RXF 393 = assay type: functional, cell-based, Homo sapiens; conditions: Homo sapiens, RXF 393;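 further: growth inhibition of human RXF 393 cells, read out with a cell viability assay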
Description: SANGER: Inhibition of human RXF393 cell growth in a cell viability assay.

HAL-01 = assay type: functional, cell-based, Homo sapiens; conditions: Homo sapiens, HAL-01;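 further: growth inhibition of human HAL-01 cells, read out with a cell viability assay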
Description: SANGER: Inhibition of human HAL-01 cell growth in a cell viability assay.

MHH-NB-11 = assay type: functional, cell-based, Homo sapiens; conditions: Homo sapiens, MHH-NB-11;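 further: growth inhibition of human MHH-NB-11 cells, read out by a cell viability assay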
Description: SANGER: Inhibition of human MHH-NB-11 cell growth in a cell viability assay.

OCUB-M = assay type: functional, cell-based; conditions: Homo sapiens;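 further: growth inhibition of the cancer cell line, read out through a cell viability assay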
Description: SANGER: Inhibition of human OCUB-M cell growth in a cell viability assay.

EW-18 = assay type: functional, cell-based, Homo sapiens; conditions: Homo sapiens, EW-18; read-out: IC50;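 further: growth inhibition of EW-18 cells, read out by a cell viability assay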
Description: SANGER: Inhibition of human EW-18 cell growth in a cell viability assay.

OCI-AML2 = assay type: functional, cell-based, Homo sapiens; conditions: Homo sapiens, OCI-AML2;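 further: growth inhibition of OCI-AML2 cells, read out with a cell viability assay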
Description: SANGER: Inhibition of human OCI-AML2 cell growth in a cell viability assay.

NB6 = assay type: functional, cell-based, Homo sapiens; conditions: Homo sapiens, NB6;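 further: growth inhibition of NB6 cells, read out by a cell viability assay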
Description: SANGER: Inhibition of human NB6 cell growth in a cell viability assay.

SK-PN-DW = assay type: functional, cell-based, Homo sapiens; conditions: Homo sapiens, SK-PN-DW;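 further: growth inhibition measured with a viability assay on these cells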
Description: SANGER: Inhibition of human SK-PN-DW cell growth in a cell viability assay.

NC(=O)c1ccc(N(C(N)=O)c2c(F)cccc2F)nc1-c1ccc(F)cc1F [VX-702]
IC50 (ES5): > 2000 nM | IC50 (NCI-H720): 16.8 nM | IC50 (NCI-H1299): > 2000 nM | IC50 (NCI-H226): > 2000 nM | IC50 (L-428): > 2000 nM | IC50 (SCC-15): > 2000 nM | IC50 (BV-173): 114 nM | IC50 (SW 962): > 2000 nM | IC50 (TE-9): > 2000 nM | IC50 (SCH): > 2000 nM | IC50 (TGBC1TKB): > 2000 nM | IC50 (GI-1): > 2000 nM | IC50 (NCI-H1092): > 2000 nM | IC50 (GAK): > 2000 nM | IC50 (LB771-HNC): > 2000 nM | IC50 (NB5): > 2000 nM | IC50 (LXF-289 cell line): > 2000 nM | IC50 (OVCAR-4): > 2000 nM | IC50 (U-87 MG): > 2000 nM | IC50 (CCRF-CEM): > 2000 nM | IC50 (8-MG-BA): > 2000 nM | IC50 (SJSA-1): > 2000 nM | IC50 (RH-1): > 2000 nM | IC50 (GR-ST): > 2000 nM | IC50 (NCI-H1355): > 2000 nM | IC50 (HCC1187): > 2000 nM | IC50 (KP-N-YS): > 2000 nM | IC50 (NEC8): > 2000 nM | IC50 (NCI-N87): > 2000 nM | IC50 (NCI-H526): > 2000 nM | IC50 (SNB-75): > 2000 nM | IC50 (no-10): > 2000 nM | IC50 (D-247MG): > 2000 nM | IC50 (MOLT-16): > 2000 nM | IC50 (TE-5): > 2000 nM | IC50 (LB1047-RCC): > 2000 nM | IC50 (PSN1): > 2000 nM | IC50 (QIMR-WIL): > 2000 nM | IC50 (L-363): > 2000 nM | IC50 (SK-NEP-1): > 2000 nM | IC50 (MV4-11): > 2000 nM | IC50 (RXF 393): > 2000 nM | IC50 (HAL-01): > 2000 nM | IC50 (MHH-NB-11): > 2000 nM | IC50 (OCUB-M): > 2000 nM | IC50 (EW-18): 747 nM | IC50 (OCI-AML2): > 2000 nM | IC50 (NB6): > 2000 nM | IC50 (SK-PN-DW): > 2000 nM

NC(=O)Nc1cc(-c2cccc(F)c2)sc1C(=O)N[C@H]1CCCNC1 [AZD-7762]
IC50 (ES5): 135 nM | IC50 (NCI-H720): 402 nM | IC50 (NCI-H1299): 556 nM | IC50 (NCI-H226): > 2000 nM | IC50 (L-428): > 2000 nM | IC50 (SCC-15): > 2000 nM | IC50 (BV-173): 346 nM | IC50 (SW 962): > 2000 nM | IC50 (TE-9): 1630 nM | IC50 (SCH): 1330 nM | IC50 (TGBC1TKB): 1920 nM | IC50 (GI-1): 196 nM | IC50 (NCI-H1092): > 2000 nM | IC50 (GAK): 1050 nM | IC50 (LB771-HNC): 559 nM | IC50 (NB5): 797 nM | IC50 (LXF-289 cell line): 676 nM | IC50 (OVCAR-4): 320 nM | IC50 (U-87 MG): 1210 nM | IC50 (CCRF-CEM): 292 nM | IC50 (8-MG-BA): 258 nM | IC50 (SJSA-1): 417 nM | IC50 (RH-1): 227 nM | IC50 (GR-ST): 178 nM | IC50 (NCI-H1355): 679 nM | IC50 (HCC1187): 967 nM | IC50 (KP-N-YS): 584 nM | IC50 (NEC8): 42 nM | IC50 (NCI-N87): 846 nM | IC50 (NCI-H526): 1540 nM | IC50 (SNB-75): 1200 nM | IC50 (no-10): > 2000 nM | IC50 (D-247MG): > 2000 nM | IC50 (MOLT-16): 88.1 nM | IC50 (TE-5): 1420 nM | IC50 (LB1047-RCC): 60.2 nM | IC50 (PSN1): 591 nM | IC50 (QIMR-WIL): 163 nM | IC50 (L-363): 73.9 nM | IC50 (SK-NEP-1): 464 nM | IC50 (MV4-11): < 7.81 nM | IC50 (RXF 393): 290 nM | IC50 (HAL-01): 210 nM | IC50 (MHH-NB-11): 390 nM | IC50 (OCUB-M): > 2000 nM | IC50 (EW-18): 1600 nM | IC50 (OCI-AML2): 1270 nM | IC50 (NB6): 985 nM | IC50 (SK-PN-DW): 119 nM

CC1=C(/C=C/C(C)=C/C=C/C(C)=C/C(=O)O)C(C)(C)CCC1 [TRETINOIN]
IC50 (ES5): > 10000 nM | IC50 (NCI-H720): 1030 nM | IC50 (NCI-H1299): > 10000 nM | IC50 (NCI-H226): > 10000 nM | IC50 (L-428): > 10000 nM | IC50 (SCC-15): 9350 nM | IC50 (BV-173): 1600 nM | IC50 (SW 962): > 10000 nM | IC50 (TE-9): > 10000 nM | IC50 (SCH): > 10000 nM | IC50 (TGBC1TKB): > 10000 nM | IC50 (GI-1): > 10000 nM | IC50 (NCI-H1092): > 10000 nM | IC50 (GAK): > 10000 nM | IC50 (LB771-HNC): > 10000 nM | IC50 (NB5): > 10000 nM | IC50 (LXF-289 cell line): > 10000 nM | IC50 (OVCAR-4): > 10000 nM | IC50 (U-87 MG): > 10000 nM | IC50 (CCRF-CEM): > 10000 nM | IC50 (8-MG-BA): > 10000 nM | IC50 (SJSA-1): > 10000 nM | IC50 (RH-1): > 10000 nM | IC50 (GR-ST): > 10000 nM | IC50 (NCI-H1355): > 10000 nM | IC50 (HCC1187): > 10000 nM | IC50 (KP-N-YS): > 10000 nM | IC50 (NEC8): > 10000 nM | IC50 (NCI-N87): > 10000 nM | IC50 (NCI-H526): 7680 nM | IC50 (SNB-75): > 10000 nM | IC50 (no-10): > 10000 nM | IC50 (D-247MG): > 10000 nM | IC50 (MOLT-16): > 10000 nM | IC50 (TE-5): > 10000 nM | IC50 (LB1047-RCC): > 10000 nM | IC50 (PSN1): > 10000 nM | IC50 (QIMR-WIL): 6620 nM | IC50 (L-363): 2070 nM | IC50 (SK-NEP-1): 662 nM | IC50 (MV4-11): 21 nM | IC50 (RXF 393): > 10000 nM | IC50 (HAL-01): > 10000 nM | IC50 (MHH-NB-11): > 10000 nM | IC50 (OCUB-M): > 10000 nM | IC50 (EW-18): > 10000 nM | IC50 (OCI-AML2): > 10000 nM | IC50 (NB6): > 10000 nM | IC50 (SK-PN-DW): > 10000 nM
